Assay results from patent EP0412508A1, “Analogues of vasopressin, their preparation and pharmaceutical use” (CESKOSLOVENSKA AKADEMIE VED, priority 1989, dated 1991).

Legend:
Ratten [1] = experiment: uterotonic (agonistic or inhibitory) activity according to Holton, modified by Munsick (printed 'Munich'); conditions: inhibitory activity expressed as pA2, rat
Source text: (§1) Die biologische Wirksamkeit wurde an Ratten bestimmt: Die uterotonische (agonistische oder inhibitorische) Wirksamkeit wurde nach Holton (Holton, J. Brit. J. Pharmacol. 3, 328, 1948) in der Bearbeitung nach Munich (Endocrinology 66, 451, 1960) bestimmt; die inhibitorische Aktivität wurde ausgedrückt als pA2 (Eggen et al., J. Gen. Physiol. 56, 250, 1970), die pressorische Wirksamkeit wurde an despinalisierten Rattenmännchen nach Krejci et al., (Brit. J. Pharm. Chemother. 30, 497, 1967) bestimmt, die antidiuretische nach Burn (Burn et al., Biol. Stand., Oxford Univ. Press London 1950). Als Standard wurde für den antidiuretischen Test das [1-Desamino,8-D-Arginin]-Vasopressin (dDAVP) verwendet. Eine Übersicht der biologischen Wirksamkeiten ist der Tabelle 1 zu entnehmen.

[2] = test system: despinalisierten Rattenmännchen; experiment: pressor activity on despinalised male rats according to Krejci et al.; assay type: in vivo, Ratten; conditions: agonistic activity
Source text: as §1

Ratten [3] = experiment: antidiuretic activity according to Burn, standard dDAVP; assay type: in vivo; conditions: rat; relative to standard [1-Desamino,8-D-Arginin]-Vasopressin (dDAVP)
Source text: as §1

## [2-p-Methyl-phenylalanin,8-D-Homoarginin]-Vasopressin
Ratten [1]
  Uterotonische Wirksamkeit, pA₂: pA₂ = 6,85
[2]
  Pressorische Wirksamkeit: 0,04 IU/mg
Ratten [3]
  Antidiuretische Wirksamkeit (% dDAVP): < 0,1 % dDAVP
